Test: Chemical stability of the compound at pH 7 after 30 days
Format: physicochemical
Details: buffer, pH 7, 720 h

With `C[C@@H](c1ncncc1F)[C@](O)(Cn1cncn1)c1ccc(F)cc1F` [VORICONAZOLE] the Stability was “Stable”.

From ChEMBL document CHEMBL1629586, “Preparation and stability of voriconazole eye drop solution” (Antimicrob Agents Chemother, 2009)
